# Values quoted from earlier work in patent US20200330541A1, “COMPOSITIONS AND METHODS FOR MODULATING ENDOTHELIAL CELL MIGRATION AND ANGIOGENESIS” (University of Maine System Board of Trustees, priority 2017, published 2020).
# Assays:
# [1] = healthy humans after consumption of black currant
# endothelial cell = settings: through the JAK/STAT3 and MAPK signaling pathways
# RAC1 = settings: smooth muscle cells, 24 hour exposure at 1 μmol/L and 100 μmol/L, compared to untreated cells
# HUVEC = settings: 200 μM, 100 μM, and 50 μM
compound,measurement,setting,value
"C[C@@H]1O[C@@H](OC[C@H]2O[C@@H](Oc3cc4c(O)cc(O)cc4[o+]c3-c3cc(O)c(O)c(O)c3)[C@H](O)[C@@H](O)[C@@H]2O)[C@H](O)[C@H](O)[C@H]1O [D3R, delphinidin, 3-O-β-rutinoside]",concentration in the plasma,[1],73.7 ± 35.0 nM
O=c1cc(-c2ccc(O)cc2)oc2cc(O)cc(O)c12 [apigenin],"endothelial cell migration, proliferation, and tubulogenesis",endothelial cell,inhibited
O=C(O)/C=C/c1ccc(O)c(O)c1 [caffeic acid],RAC1 protein synthesis,RAC1,significantly decreased
O=c1oc2c(O)c(O)cc3c(=O)oc4c(O)c(O)cc1c4c23 [ellagic acid],"endothelial cell migration, proliferation, and tubulogenesis",endothelial cell,inhibited
OC[C@H]1O[C@@H](Oc2cc3c(O)cc(O)cc3[o+]c2-c2ccc(O)cc2)[C@H](O)[C@@H](O)[C@@H]1O [pelargonidin-3-glucoside],cell proliferation and smooth muscle cell migration,smooth muscle cell,inhibitory effect
Delph inidin-3-(p-coumaroylrutinoside)-5-glucoside [nasunin],HUVEC proliferation rate,HUVEC,inhibit
epigallocatechin-3 gallate,"endothelial cell migration, proliferation, and tubulogenesis",endothelial cell,inhibited
